Test results from publication PMC5218480 (PLoS ONE, 2017).

Tested on: MV-4-11 cells
Test: Gene expression microarray analysis (Affymetrix PrimeView) and GSEA
Assay type: cell-based, human
Set-up: RFU PODN (11730768_x_at) / Fold change /veh PODN (11730768_x_at) / RFU LINC00158 (11744669_a_at) / Fold change /veh LINC00158 (11744669_a_at) / RFU DUSP10 (11751237_a_at) / Fold change /veh DUSP10 (11751237_a_at) / RFU ID3 (11757404_x_at) / Fold change /veh ID3 (11757404_x_at) / RFU PLEKHG5 (11737974_s_at) / Fold change /veh PLEKHG5 (11737974_s_at) / RFU LRRC4B (11730491_at) / Fold change /veh LRRC4B (11730491_at) / RFU GIMAP4 (11747438_a_at) / Fold change /veh GIMAP4 (11747438_a_at) / RFU KRT8 (11758183_x_at) / Fold change /veh KRT8 (11758183_x_at) / RFU CNN1 (11734310_a_at) / Fold change /veh CNN1 (11734310_a_at) / RFU VPS37D (11726825_at) / Fold change /veh VPS37D (11726825_at) / RFU C10orf10 (11716522_x_at) / Fold change /veh C10orf10 (11716522_x_at) / RFU KIR2DL2 /// KIR2DL4 /// KIR2DL5A /// KIR2DL5B /// KIR2DS1 /// KIR2DS2 /// KIR2DS3 /// KIR2DS4 /// KIR3DL3 /// KIR3DL3 /// KIR3DS1 (11738374_at) / Fold change /veh KIR2DL2 /// KIR2DL4 /// KIR2DL5A /// KIR2DL5B /// KIR2DS1 /// KIR2DS2 /// KIR2DS3 /// KIR2DS4 /// KIR3DL3 /// KIR3DL3 /// KIR3DS1 (11738374_at) / RFU C1QL1 (11718748_at) / Fold change /veh C1QL1 (11718748_at) / RFU TMPRSS4 (11747572_a_at) / Fold change /veh TMPRSS4 (11747572_a_at) / RFU HAMP (11756126_x_at) / Fold change /veh HAMP (11756126_x_at) / RFU RNFT2 (11725882_a_at) / Fold change /veh RNFT2 (11725882_a_at) / RFU NR4A2 (11747474_a_at) / Fold change /veh NR4A2 (11747474_a_at) / RFU ABCC12 (11746883_a_at) / Fold change /veh ABCC12 (11746883_a_at) / RFU TMEM136 (11760407_x_at) / Fold change /veh TMEM136 (11760407_x_at) / RFU CLDN22 /// WWC2 (11732394_at) / Fold change /veh CLDN22 /// WWC2 (11732394_at) / RFU HLA-DPB1 (11760878_x_at) / Fold change /veh HLA-DPB1 (11760878_x_at) / RFU SPINT1 (11716480_a_at) / Fold change /veh SPINT1 (11716480_a_at) / RFU GAP43 (11754022_s_at) / Fold change /veh GAP43 (11754022_s_at) / RFU A4GNT (11735810_at) / Fold change /veh A4GNT (11735810_at) / RFU PRB3 (11715151_x_at) / Fold change /veh PRB3 (11715151_x_at) / RFU TUBB4B (11761932_at) / Fold change /veh TUBB4B (11761932_at) / RFU CAPN14 (11732068_a_at) / Fold change /veh CAPN14 (11732068_a_at) / RFU TMCC2 (11721928_a_at) / Fold change /veh TMCC2 (11721928_a_at) / RFU IRGQ (11745062_a_at) / Fold change /veh IRGQ (11745062_a_at) / RFU FAM174B (11720279_a_at) / Fold change /veh FAM174B (11720279_a_at) / RFU TMPRSS4 (11748680_a_at) / Fold change /veh TMPRSS4 (11748680_a_at) / RFU FAM212B (11763350_a_at) / Fold change /veh FAM212B (11763350_a_at) / RFU PLEKHG5 (11743358_a_at) / Fold change /veh PLEKHG5 (11743358_a_at) / RFU ZSCAN30 (11745921_a_at) / Fold change /veh ZSCAN30 (11745921_a_at) / RFU CMKLR1 (11741424_a_at) / Fold change /veh CMKLR1 (11741424_a_at) / RFU LOC101060620 /// MAPK8IP1 (11723275_at) / Fold change /veh LOC101060620 /// MAPK8IP1 (11723275_at) / RFU SPTSSB (11747773_x_at) / Fold change /veh SPTSSB (11747773_x_at) / RFU PRSS12 (11739890_at) / Fold change /veh PRSS12 (11739890_at) / RFU BIN1 (11741810_x_at) / Fold change /veh BIN1 (11741810_x_at) / RFU WNT11 (11732464_a_at) / Fold change /veh WNT11 (11732464_a_at) / RFU C10orf10 (11716521_a_at) / Fold change /veh C10orf10 (11716521_a_at) / RFU C5orf56 (11738089_at) / Fold change /veh C5orf56 (11738089_at) / RFU CYB561 (11721691_x_at) / Fold change /veh CYB561 (11721691_x_at) / RFU ANKRD19P (11752326_a_at) / Fold change /veh ANKRD19P (11752326_a_at) / RFU OR2T12 /// OR2T33 /// OR2T8 (11738714_s_at) / Fold change /veh OR2T12 /// OR2T33 /// OR2T8 (11738714_s_at) / RFU VCAN (11748164_a_at) / Fold change /veh VCAN (11748164_a_at) / RFU JSRP1 (11732532_at) / Fold change /veh JSRP1 (11732532_at) / RFU KRTAP10-11 (11738290_x_at) / Fold change /veh KRTAP10-11 (11738290_x_at) / RFU MYO3A (11730013_a_at) / Fold change /veh MYO3A (11730013_a_at) / RFU EBF3 (11725865_a_at) / Fold change /veh EBF3 (11725865_a_at) / RFU CAMK2N1 (11719241_x_at) / Fold change /veh CAMK2N1 (11719241_x_at) / RFU C5orf56 (11738088_a_at) / Fold change /veh C5orf56 (11738088_a_at) / RFU OLFML3 (11715873_a_at) / Fold change /veh OLFML3 (11715873_a_at) / RFU LOC100653217 /// NTM (11731650_a_at) / Fold change /veh LOC100653217 /// NTM (11731650_a_at) / RFU MAPK11 (11762145_a_at) / Fold change /veh MAPK11 (11762145_a_at) / RFU FIZ1 (11724087_x_at) / Fold change /veh FIZ1 (11724087_x_at) / RFU OASL (11726364_x_at) / Fold change /veh OASL (11726364_x_at) / RFU SOX15 (11748057_x_at) / Fold change /veh SOX15 (11748057_x_at) / RFU CD79A (11719716_a_at) / Fold change /veh CD79A (11719716_a_at) / RFU HIST1H1D (11736915_at) / Fold change /veh HIST1H1D (11736915_at) / RFU CASKIN2 (11723855_a_at) / Fold change /veh CASKIN2 (11723855_a_at) / RFU LOC730098 (11760151_x_at) / Fold change /veh LOC730098 (11760151_x_at) / RFU OR4N2 (11742367_at) / Fold change /veh OR4N2 (11742367_at) / RFU PRRT2 (11749266_a_at) / Fold change /veh PRRT2 (11749266_a_at) / RFU SNX32 (11753110_a_at) / Fold change /veh SNX32 (11753110_a_at) / RFU CDHR5 (11726645_a_at) / Fold change /veh CDHR5 (11726645_a_at) / RFU RCAN1 (11760418_a_at) / Fold change /veh RCAN1 (11760418_a_at) / RFU FAM167A (11723789_a_at) / Fold change /veh FAM167A (11723789_a_at) / RFU FAM26E (11764081_at) / Fold change /veh FAM26E (11764081_at) / RFU ISYNA1 (11749810_s_at) / Fold change /veh ISYNA1 (11749810_s_at) / RFU ACY1 (11761880_at) / Fold change /veh ACY1 (11761880_at) / RFU 11764098_at / Fold change /veh 11764098_at / RFU SAMD14 (11745864_x_at) / Fold change /veh SAMD14 (11745864_x_at) / RFU NPB (11741838_a_at) / Fold change /veh NPB (11741838_a_at) / RFU TMPRSS6 (11731388_a_at) / Fold change /veh TMPRSS6 (11731388_a_at) / RFU KRTAP10-2 (11738614_at) / Fold change /veh KRTAP10-2 (11738614_at) / RFU ARHGAP8 /// PRR5-ARHGAP8 (11727945_x_at) / Fold change /veh ARHGAP8 /// PRR5-ARHGAP8 (11727945_x_at) / RFU KRTAP5-7 /// NADSYN1 (11734609_at) / Fold change /veh KRTAP5-7 /// NADSYN1 (11734609_at) / RFU RASL12 (11751679_a_at) / Fold change /veh RASL12 (11751679_a_at) / RFU CDKN2B (11736163_a_at) / Fold change /veh CDKN2B (11736163_a_at) / RFU PRF1 (11729649_at) / Fold change /veh PRF1 (11729649_at) / RFU, ZNF638 /// ZNF638-IT1 / Fold change vs veh, ZNF638 /// ZNF638-IT1 / RFU, PANK3 / Fold change vs veh, PANK3 / RFU, SH3YL1 / Fold change vs veh, SH3YL1 / RFU, ZEB2 / Fold change vs veh, ZEB2 / RFU, NRIP1 / Fold change vs veh, NRIP1 / RFU, PTTG1IP / Fold change vs veh, PTTG1IP / RFU, CAPN2 / Fold change vs veh, CAPN2 / RFU, MED14 / Fold change vs veh, MED14 / RFU, SNORA58 / Fold change vs veh, SNORA58 / RFU, C1orf63 / Fold change vs veh, C1orf63 / RFU, LRRFIP1 / Fold change vs veh, LRRFIP1 / RFU, NDUFAF7 / Fold change vs veh, NDUFAF7 / RFU, SLC12A2 / Fold change vs veh, SLC12A2 / RFU, IBTK / Fold change vs veh, IBTK / RFU, ESF1 / Fold change vs veh, ESF1 / Fold change vs veh, TMEM50B / RFU, TAOK1 / Fold change vs veh, TAOK1 / RFU, ACBD3 / Fold change vs veh, ACBD3 / RFU, TMA16 / Fold change vs veh, TMA16 / RFU, RWDD3 / Fold change vs veh, RWDD3 / RFU, BCAT1 / Fold change vs veh, BCAT1 / RFU, EDEM3 / Fold change vs veh, EDEM3 / RFU, TMEM33 / Fold change vs veh, TMEM33 / RFU, WDR75 / Fold change vs veh, WDR75 / RFU, AHCTF1 / Fold change vs veh, AHCTF1 / RFU, TFRC / Fold change vs veh, TFRC / RFU, ZDHHC17 / Fold change vs veh, ZDHHC17 / RFU, NOM1 / Fold change vs veh, NOM1 / RFU, ARL8B / Fold change vs veh, ARL8B / RFU, ZBTB11 / Fold change vs veh, ZBTB11 / RFU, TAMM41 / Fold change vs veh, TAMM41 / RFU, KIAA1704 /// LOC100996395 / Fold change vs veh, KIAA1704 /// LOC100996395 / RFU, ING1 / Fold change vs veh, ING1 / RFU, TRMT61B / Fold change vs veh, TRMT61B / RFU, FUBP3 / Fold change vs veh, FUBP3 / RFU, TP53 / Fold change vs veh, TP53 / RFU, TNKS2 / Fold change vs veh, TNKS2 / RFU, ZFP14 / Fold change vs veh, ZFP14 / RFU, ACTR2 / Fold change vs veh, ACTR2 / RFU, PPP3R1 / Fold change vs veh, PPP3R1 / RFU, PIK3R1 / Fold change vs veh, PIK3R1 / RFU, HNRNPA1 / Fold change vs veh, HNRNPA1 / RFU, RNF170 / Fold change vs veh, RNF170 / RFU, ZNF28 / Fold change vs veh, ZNF28 / RFU, RNGTT / Fold change vs veh, RNGTT / RFU, OGT / Fold change vs veh, OGT / RFU, BRD1 / Fold change vs veh, BRD1 / RFU, MARS / Fold change vs veh, MARS / RFU, ZNF655 / Fold change vs veh, ZNF655 / RFU, FAHD1 / Fold change vs veh, FAHD1 / RFU, BDP1 / Fold change vs veh, BDP1 / RFU, LRRCC1 / Fold change vs veh, LRRCC1 / RFU, ARID1A / Fold change vs veh, ARID1A / RFU, ZNF146 / Fold change vs veh, ZNF146 / RFU, ZNF330 / Fold change vs veh, ZNF330 / RFU, GPN3 / Fold change vs veh, GPN3 / RFU, C9orf123 / Fold change vs veh, C9orf123 / RFU, N4BP2L2 / Fold change vs veh, N4BP2L2 / RFU, ARFIP1 / Fold change vs veh, ARFIP1 / RFU, FAM179B / Fold change vs veh, FAM179B / RFU, BCL10 / Fold change vs veh, BCL10 / RFU, UHRF1BP1L / Fold change vs veh, UHRF1BP1L / RFU, BET1 / Fold change vs veh, BET1 / RFU, CNOT2 / Fold change vs veh, CNOT2 / RFU, ZNF268 / Fold change vs veh, ZNF268 / Fold change vs veh, ZNF507 / RFU, DGCR2 / Fold change vs veh, DGCR2 / RFU, WDSUB1 / Fold change vs veh, WDSUB1 / Fold change vs veh, HSP90B1 /// MIR3652 / RFU, ADSS / Fold change vs veh, ADSS / RFU, GK / Fold change vs veh, GK / RFU, ZNF148 / Fold change vs veh, ZNF148 / RFU, TAF9 / Fold change vs veh, TAF9 / RFU, SLC1A5 / Fold change vs veh, SLC1A5 / RFU, SLMO2 / Fold change vs veh, SLMO2 / RFU, ABCC4 / Fold change vs veh, ABCC4 / RFU, LOC101060439 /// RAP1B / Fold change vs veh, LOC101060439 /// RAP1B / RFU, RFX7 / Fold change vs veh, RFX7 / RFU, GTPBP10 / Fold change vs veh, GTPBP10 / RFU, CNEP1R1 / Fold change vs veh, CNEP1R1 / RFU, BIVM-ERCC5 /// ERCC5 / Fold change vs veh, BIVM-ERCC5 /// ERCC5 / RFU, ILF3 / Fold change vs veh, ILF3 / RFU 11762660_at / Fold change /veh 11762660_at / RFU VCAN (11757783_s_at) / Fold change /veh VCAN (11757783_s_at) / RFU DDX43 (11728927_at) / Fold change /veh DDX43 (11728927_at) / RFU KRT8 (11758188_x_at) / Fold change /veh KRT8 (11758188_x_at) / RFU NKD1 (11759106_at) / Fold change /veh NKD1 (11759106_at) / RFU SRD5A1 (11742802_a_at) / Fold change /veh SRD5A1 (11742802_a_at) / RFU TPSAB1 /// TPSB2 (11721975_s_at) / Fold change /veh TPSAB1 /// TPSB2 (11721975_s_at) / RFU GSTM3 (11746129_a_at) / Fold change /veh GSTM3 (11746129_a_at) / RFU IL23R (11737362_x_at) / Fold change /veh IL23R (11737362_x_at) / RFU TMEM51 (11727254_a_at) / Fold change /veh TMEM51 (11727254_a_at) / RFU PIWIL2 (11732686_x_at) / Fold change /veh PIWIL2 (11732686_x_at) / RFU ORM1 (11744905_x_at) / Fold change /veh ORM1 (11744905_x_at) / RFU CCDC152 (11743942_at) / Fold change /veh CCDC152 (11743942_at) / RFU ECM1 (11717891_a_at) / Fold change /veh ECM1 (11717891_a_at) / RFU IL23R (11748794_a_at) / Fold change /veh IL23R (11748794_a_at) / RFU TNFAIP8L3 (11732012_x_at) / Fold change /veh TNFAIP8L3 (11732012_x_at) / RFU MBOAT4 (11741988_at) / Fold change /veh MBOAT4 (11741988_at) / RFU 11764193_at / Fold change /veh 11764193_at / RFU TMEM53 (11763286_at) / Fold change /veh TMEM53 (11763286_at) / RFU MAGEB2 (11727129_at) / Fold change /veh MAGEB2 (11727129_at) / RFU TMEM200A (11744735_a_at) / Fold change /veh TMEM200A (11744735_a_at) / RFU CCDC152 (11751479_a_at) / Fold change /veh CCDC152 (11751479_a_at) / RFU FAM211A (11726209_a_at) / Fold change /veh FAM211A (11726209_a_at) / RFU RGS16 (11746705_a_at) / Fold change /veh RGS16 (11746705_a_at) / RFU VCAN (11755009_s_at) / Fold change /veh VCAN (11755009_s_at) / RFU RHOB (11743442_s_at) / Fold change /veh RHOB (11743442_s_at) / RFU RGS16 (11720943_a_at) / Fold change /veh RGS16 (11720943_a_at) / RFU RGS16 (11720944_at) / Fold change /veh RGS16 (11720944_at) / RFU, VPS4B / Fold change vs veh, VPS4B / RFU, CREB1 / Fold change vs veh, CREB1 / RFU, DNAJC13 / Fold change vs veh, DNAJC13 / RFU, GNAQ / Fold change vs veh, GNAQ / RFU, CDK5R1 / Fold change vs veh, CDK5R1 / RFU, ZRANB3 / Fold change vs veh, ZRANB3 / RFU, CUL4A / Fold change vs veh, CUL4A / RFU, CCNY / Fold change vs veh, CCNY / RFU, UFL1 / Fold change vs veh, UFL1 / RFU, COG3 / Fold change vs veh, COG3 / RFU, DIAPH2 / Fold change vs veh, DIAPH2 / RFU, SKA2 / Fold change vs veh, SKA2 / RFU, AFF3 / Fold change vs veh, AFF3 / RFU, LMF1 / Fold change vs veh, LMF1 / RFU, IPO11 / Fold change vs veh, IPO11 / RFU, DFFB / Fold change vs veh, DFFB / RFU, FOXP1 / Fold change vs veh, FOXP1 / RFU, CARD8 / Fold change vs veh, CARD8 / RFU, STRN3 / Fold change vs veh, STRN3 / RFU, ADK / Fold change vs veh, ADK / RFU, RASSF2 / Fold change vs veh, RASSF2 / RFU, WIPF1 / Fold change vs veh, WIPF1 / RFU, LARP1B / Fold change vs veh, LARP1B / RFU, RASA1 / Fold change vs veh, RASA1 / RFU, RB1 / Fold change vs veh, RB1 / RFU, PPFIA1 / Fold change vs veh, PPFIA1 / RFU, MAT2A / Fold change vs veh, MAT2A / RFU, CCT5 / Fold change vs veh, CCT5 / RFU, WDR92 / Fold change vs veh, WDR92 / RFU, CUX1 / Fold change vs veh, CUX1 / RFU, TTC7A / Fold change vs veh, TTC7A / RFU, TMEM135 / Fold change vs veh, TMEM135 / RFU, DEPTOR / Fold change vs veh, DEPTOR / RFU, CPM / Fold change vs veh, CPM / RFU, DNAJB6 / Fold change vs veh, DNAJB6 / RFU, CACNA2D3 / Fold change vs veh, CACNA2D3 / RFU, DTX4 / Fold change vs veh, DTX4 / RFU, TFCP2 / Fold change vs veh, TFCP2 / RFU, GMCL1 /// GMCL1P1 / Fold change vs veh, GMCL1 /// GMCL1P1 / RFU, AEBP2 / Fold change vs veh, AEBP2 / RFU, SNHG1 /// SNORD22 /// SNORD25 /// SNORD26 /// SNORD27 /// SNORD28 /// SNORD29 /// SNORD31 / Fold change vs veh, SNHG1 /// SNORD22 /// SNORD25 /// SNORD26 /// SNORD27 /// SNORD28 /// SNORD29 /// SNORD31 / Fold change (Aza/veh), C12orf56 (ProbeSet 11735607_a_at) / Fold change (ACY-1035/veh), C12orf56 (ProbeSet 11735607_a_at) / Fold change (Aza/veh), FGFR1OP (ProbeSet 11751329_s_at) / Fold change (ACY-1035/veh), FGFR1OP (ProbeSet 11751329_s_at) / Fold change (Aza/veh), VPS36 (ProbeSet 11739960_a_at) / Fold change (ACY-1035/veh), VPS36 (ProbeSet 11739960_a_at) / RFU SYPL1 (11715823_x_at) / Fold change /veh SYPL1 (11715823_x_at) / RFU IGFBP7 (11715501_s_at) / Fold change /veh IGFBP7 (11715501_s_at) / RFU REEP3 (11722064_at) / Fold change /veh REEP3 (11722064_at) / RFU IGLL1 (11728026_x_at) / Fold change /veh IGLL1 (11728026_x_at): dose or concentration left out as unconfirmed
Settings: ProbeSet 11740528_a_at; LIST D

Nc1ccc(-c2cccs2)cc1NC(=O)c1ccc2c(c1)cc(C1CC1)n2CCN1CCOCC1 [ACY-1035]
Fold change vs veh, AFF3: 0.95
